Assay results: US20220323406A1, “METHODS AND COMPOSITIONS FOR DIFFERENTIATING STEM CELLS” (Massachusetts Institute of Technology, priority 2019, published 2022)

How the values were obtained:
[1] = test system: ENR+CD organoids (ISC to Paneth cell differentiation); experiment: Primary screen: CCh-stimulated lysozyme secretion LYZ.S, 2.5-D 384-well ENR+CD organoid differentiation; type: cell-based, mouse; settings: primary screen
Source text: (§1) High-throughput screening.

[2] = test system: ENR+CD organoids (ISC to Paneth cell differentiation); experiment: Primary screen: basal (non-stimulated) lysozyme secretion LYZ.NS, 2.5-D 384-well ENR+CD organoid differentiation; type: cell-based, mouse
Source text: as §1

[3] = test system: ENR+CD organoids; experiment: Primary screen: ATP (CellTiter-Glo 3D, CTG) cell number/viability, 2.5-D 384-well ENR+CD organoids;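 also: compounds given at plating and again on day 3 over a 6-day differentiation from ENR+CV stem-cell-enriched precursors, ATP measured on day 6, plate median as control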
[4] = primary screen, dose 0.08 uM, FC relative to plate median
[5] = primary screen, dose 0.08 uM, standard z score
[6] = primary screen, dose 0.40 uM, FC relative to plate median
[7] = primary screen, dose 0.40 uM, standard z score
[8] = primary screen, dose 2.00 uM, FC relative to plate median
[9] = primary screen, dose 2.00 uM, standard z score
[10] = primary screen, dose 10.00 uM, FC relative to plate median
[11] = primary screen, dose 10.00 uM, standard z score
[12] = primary screen, standard z score, dose 0.08 uM
[13] = primary screen, standard z score, dose 0.40 uM
[14] = primary screen, standard z score, dose 2.00 uM
[15] = primary screen, standard z score, dose 10.00 uM

SMILES: Cc1c(Cl)cccc1Nc1ccccc1C(=O)O [Tolfenamic Acid]
- Dose.FC.LYZ.S ([1]; dose 0.08 uM): 0.118 log2 fold change
- Dose.FC.LYZ.S ([1]; dose 0.40 uM): 0.052 log2 fold change
- Dose.FC.LYZ.S ([1]; dose 2.00 uM): −0.023 log2 fold change
- Dose.FC.LYZ.S ([1]; dose 10.00 uM): −0.064 log2 fold change
- Dose.FC.LYZ.NS ([2]; primary screen, dose 0.08 uM): 0.028 log2 fold change
- Z.LYZ.NS (standard z score) ([2]; primary screen, dose 0.08 uM): 0.242
- Dose.FC.LYZ.NS ([2]; primary screen, dose 0.40 uM): 0.023 log2 fold change
- Z.LYZ.NS (standard z score) ([2]; primary screen, dose 0.40 uM): 0.200
- Dose.FC.LYZ.NS ([2]; primary screen, dose 2.00 uM): 0.107 log2 fold change
- Z.LYZ.NS (standard z score) ([2]; primary screen, dose 2.00 uM): 0.927
- Dose.FC.LYZ.NS ([2]; primary screen, dose 10.00 uM): −0.039 log2 fold change
- Z.LYZ.NS (standard z score) ([2]; primary screen, dose 10.00 uM): −0.343
- Dose.FC.CTG ([3]; primary screen, dose 0.08 uM): 0.196 log2 fold change
- Dose.FC.CTG ([3]; primary screen, dose 0.40 uM): −0.003 log2 fold change
- Dose.FC.CTG ([3]; primary screen, dose 2.00 uM): −0.159 log2 fold change
- Dose.FC.CTG ([3]; primary screen, dose 10.00 uM): −0.115 log2 fold change

SMILES: Oc1ccc(Nc2nc(-c3ccc(Cl)cc3)cs2)cc1 [SKI II]
- Dose.FC.LYZ.S ([1]; dose 0.08 uM, FC relative to plate median): 0.090 log2 fold change
- Dose.FC.LYZ.S ([1]; dose 0.40 uM, FC relative to plate median): 0.123 log2 fold change
- Dose.FC.LYZ.S ([1]; dose 2.00 uM, FC relative to plate median): 0.061 log2 fold change
- Dose.FC.LYZ.S ([1]; dose 10.00 uM, FC relative to plate median): −0.191 log2 fold change
- Dose.FC.LYZ.NS [2, 4]: 0.078 log2 fold change
- Z.LYZ.NS [2, 5]: 0.683
- Dose.FC.LYZ.NS [2, 6]: 0.219 log2 fold change
- Z.LYZ.NS [2, 7]: 1.906
- Dose.FC.LYZ.NS [2, 8]: 0.074 log2 fold change
- Z.LYZ.NS [2, 9]: 0.647
- Dose.FC.LYZ.NS [2, 10]: −0.156 log2 fold change
- Z.LYZ.NS [2, 11]: −1.362
- Dose.FC.CTG [3, 4]: 0.293 log2 fold change
- Z.CTG [3, 5]: 0.699
- Dose.FC.CTG [3, 6]: 0.222 log2 fold change
- Z.CTG [3, 7]: 0.531
- Dose.FC.CTG [3, 8]: 0.198 log2 fold change
- Z.CTG [3, 9]: 0.473
- Dose.FC.CTG [3, 10]: −0.336 log2 fold change
- Z.CTG [3, 11]: −0.802

SMILES: O=C(NC(NC(=S)Nc1ccc(F)c([N+](=O)[O-])c1)C(Cl)(Cl)Cl)C(c1ccccc1)c1ccccc1 (stereo not drawn) [CGK733]
- Dose.FC.LYZ.S ([1]; dose 0.08 uM): 0.008 log2 fold change
- Dose.FC.LYZ.S ([1]; dose 0.40 uM): −0.018 log2 fold change
- Dose.FC.LYZ.S ([1]; dose 2.00 uM): −0.125 log2 fold change
- Dose.FC.LYZ.S ([1]; dose 10.00 uM): −0.230 log2 fold change
- Dose.FC.LYZ.NS ([2]; primary screen, dose 0.08 uM): 0.099 log2 fold change
- Dose.FC.LYZ.NS ([2]; primary screen, dose 0.40 uM): −0.026 log2 fold change
- Dose.FC.LYZ.NS ([2]; primary screen, dose 2.00 uM): −0.099 log2 fold change
- Dose.FC.LYZ.NS ([2]; primary screen, dose 10.00 uM): −0.122 log2 fold change
- Z.LYZ.NS [2, 12]: 0.863
- Z.LYZ.NS [2, 13]: −0.222
- Z.LYZ.NS [2, 14]: −0.865
- Z.LYZ.NS [2, 15]: −1.063
- Dose.FC.CTG ([3]; primary screen, dose 0.08 uM): −0.362 log2 fold change
- Dose.FC.CTG ([3]; primary screen, dose 0.40 uM): −0.093 log2 fold change
- Dose.FC.CTG ([3]; primary screen, dose 2.00 uM): −0.244 log2 fold change
- Dose.FC.CTG ([3]; primary screen, dose 10.00 uM): −0.478 log2 fold change
- Z.CTG [3, 12]: −0.864
- Z.CTG [3, 13]: −0.221
- Z.CTG [3, 14]: −0.582
- Z.CTG [3, 15]: −1.143

SMILES: CCOC(=O)[C@H]1O[C@@H]1C(=O)N[C@@H](CC(C)C)C(=O)NCCC(C)C [Aloxistatin]
- Dose.FC.LYZ.S ([1]; dose 0.08 uM): 0.025 log2 fold change
- Dose.FC.LYZ.S ([1]; dose 0.40 uM): −0.016 log2 fold change
- Dose.FC.LYZ.S ([1]; dose 2.00 uM): −0.091 log2 fold change
- Dose.FC.LYZ.S ([1]; dose 10.00 uM): −0.181 log2 fold change
- Dose.FC.LYZ.NS ([2]; primary screen, dose 0.08 uM): 0.020 log2 fold change
- Z.LYZ.NS (standard z score) ([2]; primary screen, dose 0.08 uM): 0.171
- Dose.FC.LYZ.NS ([2]; primary screen, dose 0.40 uM): −0.029 log2 fold change
- Z.LYZ.NS (standard z score) ([2]; primary screen, dose 0.40 uM): −0.250
- Dose.FC.LYZ.NS ([2]; primary screen, dose 2.00 uM): −0.037 log2 fold change
- Z.LYZ.NS (standard z score) ([2]; primary screen, dose 2.00 uM): −0.324
- Dose.FC.LYZ.NS ([2]; primary screen, dose 10.00 uM): −0.142 log2 fold change
- Z.LYZ.NS (standard z score) ([2]; primary screen, dose 10.00 uM): −1.236
- Dose.FC.CTG ([3]; primary screen, dose 0.08 uM): −0.006 log2 fold change
- Dose.FC.CTG ([3]; primary screen, dose 0.40 uM): −0.006 log2 fold change
- Dose.FC.CTG ([3]; primary screen, dose 2.00 uM): −0.129 log2 fold change
- Dose.FC.CTG ([3]; primary screen, dose 10.00 uM): −0.214 log2 fold change

SMILES: Nc1nc(N)c2nc(-c3cccc(O)c3)c(-c3cccc(O)c3)nc2n1 [TG100-115]
- Dose.FC.LYZ.S ([1]; dose 0.08 uM): 0.073 log2 fold change
- Dose.FC.LYZ.S ([1]; dose 0.40 uM): 0.032 log2 fold change
- Dose.FC.LYZ.S ([1]; dose 2.00 uM): −0.019 log2 fold change
- Dose.FC.LYZ.S ([1]; dose 10.00 uM): −0.100 log2 fold change
- Dose.FC.LYZ.NS ([2]; primary screen, dose 0.08 uM): 0.208 log2 fold change
- Z.LYZ.NS (standard z score) ([2]; primary screen, dose 0.08 uM): 1.812
- Dose.FC.LYZ.NS ([2]; primary screen, dose 0.40 uM): −0.026 log2 fold change
- Z.LYZ.NS (standard z score) ([2]; primary screen, dose 0.40 uM): −0.223
- Dose.FC.LYZ.NS ([2]; primary screen, dose 2.00 uM): 0.003 log2 fold change
- Z.LYZ.NS (standard z score) ([2]; primary screen, dose 2.00 uM): 0.025
- Dose.FC.LYZ.NS ([2]; primary screen, dose 10.00 uM): −0.026 log2 fold change
- Z.LYZ.NS (standard z score) ([2]; primary screen, dose 10.00 uM): −0.223
- Dose.FC.CTG ([3]; primary screen, dose 0.08 uM): −0.256 log2 fold change
- Z.CTG (standard z score) ([3]; primary screen, dose 0.08 uM): −0.611
- Dose.FC.CTG ([3]; primary screen, dose 0.40 uM): 0.066 log2 fold change
- Z.CTG (standard z score) ([3]; primary screen, dose 0.40 uM): 0.158
- Dose.FC.CTG ([3]; primary screen, dose 2.00 uM): −0.013 log2 fold change
- Z.CTG (standard z score) ([3]; primary screen, dose 2.00 uM): −0.031
- Dose.FC.CTG ([3]; primary screen, dose 10.00 uM): −0.116 log2 fold change
- Z.CTG (standard z score) ([3]; primary screen, dose 10.00 uM): −0.277

SMILES: C[C@@H]1CN(CC(=O)Nc2ccc3c(c2)Cc2cccc(-c4cc(=O)cc(N5CCOCC5)o4)c2S3)C[C@H](C)O1 [KU-60019]
- Dose.FC.LYZ.S (log2 fold change) ([1]; dose 0.08 uM): 0.230
- Dose.FC.LYZ.S (log2 fold change) ([1]; dose 0.40 uM): 0.073
- Dose.FC.LYZ.S (log2 fold change) ([1]; dose 2.00 uM): −0.049
- Dose.FC.LYZ.S (log2 fold change) ([1]; dose 10.00 uM): −0.222
- Dose.FC.LYZ.NS (log2 fold change) ([2]; primary screen, dose 0.08 uM): 0.042
- Z.LYZ.NS (standard z score) ([2]; primary screen, dose 0.08 uM): 0.365
- Dose.FC.LYZ.NS (log2 fold change) ([2]; primary screen, dose 0.40 uM): −0.001
- Z.LYZ.NS (standard z score) ([2]; primary screen, dose 0.40 uM): −0.012
- Dose.FC.LYZ.NS (log2 fold change) ([2]; primary screen, dose 2.00 uM): −0.015
- Z.LYZ.NS (standard z score) ([2]; primary screen, dose 2.00 uM): −0.132
- Dose.FC.LYZ.NS (log2 fold change) ([2]; primary screen, dose 10.00 uM): −0.088
- Z.LYZ.NS (standard z score) ([2]; primary screen, dose 10.00 uM): −0.769
- Dose.FC.CTG (log2 fold change) ([3]; primary screen, dose 0.08 uM): 0.114
- Dose.FC.CTG (log2 fold change) ([3]; primary screen, dose 0.40 uM): 0.039
- Dose.FC.CTG (log2 fold change) ([3]; primary screen, dose 2.00 uM): 0.121
- Dose.FC.CTG (log2 fold change) ([3]; primary screen, dose 10.00 uM): −0.522
